Data reported in patent US10487054B2, “Therapeutic compounds” (REGENTS OF THE UNIVERSITY OF MINNESOTA, priority 2017, dated 2019).

Columns and labels:
[1] = Absorbance scan by spectrophotometer; format: physicochemical
Protocol: Absorbance wavelengths of compound 1 were scanned using a Beckman DU®800 spectrophotometer.
In order to confirm whether compound 1 absorbs at UVA or UVB wavelengths, its ability to absorb SUV light between […] was examined. […] In addition, an anchorage-independent growth assay was performed to assess the effect of compound 1 on cell transformation. […] Similarly, cell proliferation was determined by a crystal violet staining assay.

TOPK = molecular target: T1, TOPK (Homo sapiens, UniProt Q96KB5); assay: Pull-down assay with HaCaT cell lysates; format: binding; details: HaCaT cell lysates 500 μg, Western blot
T1 construct: endogenous in cells; host or cells: HaCaT
T1 sequence (Q96KB5 1-322): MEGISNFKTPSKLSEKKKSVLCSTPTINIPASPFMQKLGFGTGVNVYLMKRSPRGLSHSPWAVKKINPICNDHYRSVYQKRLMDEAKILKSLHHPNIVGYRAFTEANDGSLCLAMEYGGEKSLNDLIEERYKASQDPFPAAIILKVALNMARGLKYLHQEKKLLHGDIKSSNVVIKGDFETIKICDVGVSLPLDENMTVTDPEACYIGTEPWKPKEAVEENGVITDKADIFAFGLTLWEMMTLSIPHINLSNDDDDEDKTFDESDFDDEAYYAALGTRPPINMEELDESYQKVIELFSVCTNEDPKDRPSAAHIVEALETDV
Protocol: Active TOPK (200 ng) was incubated with different concentrations of ATP (0, 10 or 100 μM) and then mixed with compound 1-conjugated Sepharose 4B beads or Sepharose 4B beads. Proteins were pulled down and analyzed by Western blot. Data are representative of 3 independent experiments that gave similar results. FIGS. 2C and 2D show compound 1 binds to either TOPK (2C) or MEK1/2 (2D) ex vivo. Lysates from HaCaT cells (500 μg) were incubated with compound 1-conjugated Sepharose 4B beads or Sepharose 4B beads alone and the pulled-down proteins were analyzed by Western blot. Data are representative of 3 independent experiments that gave similar results. FIGS. 2E and 2F show compound 1 inhibits TOPK kinase (2E) activity but not MEK1 kinase (2F) activity in vitro. Active TOPK (200 ng) was mixed with compound 1 (0, 0.5, 1, 3, or 5 μM) or HI-032 (TOPK inhibitor, 10 μM) and then incubated with a [γ-^32P] ATP mixture. Similarly, MEK1 (200 ng) was mixed with compound 1 (0, 0.5, 1, 3, 5, or 10 μM) or PD098059 (MEK1 inhibitor, 5 μM) and then incubated with a [γ-^32P] ATP mixture. For 2E and 2F, the results are visualized by autoradiography and Coomassie blue staining serves as a loading control. Data are representative of 3 independent experiments that gave similar results. […]

- peak absorption ([1]; scanned between 250 and 320 nm): 259 nm
- wavelength range of main light absorption ([1]; scanned between 250 and 320 nm): 250-275 nm
Structure (SMILES): O=C1Nc2ccc(C34CC5CC(CC(C5)C3)C4)cc2C1=NO [compound 1, 5-(adamantan-1-yl)-3-(hydroxyimino)indolin-2-one]
- absorbance of UVA or UVB [1]: did not show significant absorbance of UVA or UVB
- binding of TOPK to compound-conjugated beads (TOPK): detected in the compound 1-conjugated beads group but not in the beads only group
